Data: patent publication US20250026721A1, “COMPOUNDS AND METHODS FOR MODULATING RAS-PI3K” (Vividion Therapeutics, Inc., priority 2023, published 2025)

What was measured:
PIK3CA = biological target: T1, PIK3CA (Homo sapiens, UniProt P42336); experiment: In vitro ELISA target engagement assay for PIK3CA in Jurkat cellular lysate (competition with PIK3CA Biotin Probe); format: binding; details: 1 hour at rt, then 500 nM PIK3CA Biotin Probe, read-out: Elisa Target Engagement Assay (TE50)
T1 construct: endogenous in cells; host or cells: Jurkat cell lysate
T1 sequence (P42336 whole entry): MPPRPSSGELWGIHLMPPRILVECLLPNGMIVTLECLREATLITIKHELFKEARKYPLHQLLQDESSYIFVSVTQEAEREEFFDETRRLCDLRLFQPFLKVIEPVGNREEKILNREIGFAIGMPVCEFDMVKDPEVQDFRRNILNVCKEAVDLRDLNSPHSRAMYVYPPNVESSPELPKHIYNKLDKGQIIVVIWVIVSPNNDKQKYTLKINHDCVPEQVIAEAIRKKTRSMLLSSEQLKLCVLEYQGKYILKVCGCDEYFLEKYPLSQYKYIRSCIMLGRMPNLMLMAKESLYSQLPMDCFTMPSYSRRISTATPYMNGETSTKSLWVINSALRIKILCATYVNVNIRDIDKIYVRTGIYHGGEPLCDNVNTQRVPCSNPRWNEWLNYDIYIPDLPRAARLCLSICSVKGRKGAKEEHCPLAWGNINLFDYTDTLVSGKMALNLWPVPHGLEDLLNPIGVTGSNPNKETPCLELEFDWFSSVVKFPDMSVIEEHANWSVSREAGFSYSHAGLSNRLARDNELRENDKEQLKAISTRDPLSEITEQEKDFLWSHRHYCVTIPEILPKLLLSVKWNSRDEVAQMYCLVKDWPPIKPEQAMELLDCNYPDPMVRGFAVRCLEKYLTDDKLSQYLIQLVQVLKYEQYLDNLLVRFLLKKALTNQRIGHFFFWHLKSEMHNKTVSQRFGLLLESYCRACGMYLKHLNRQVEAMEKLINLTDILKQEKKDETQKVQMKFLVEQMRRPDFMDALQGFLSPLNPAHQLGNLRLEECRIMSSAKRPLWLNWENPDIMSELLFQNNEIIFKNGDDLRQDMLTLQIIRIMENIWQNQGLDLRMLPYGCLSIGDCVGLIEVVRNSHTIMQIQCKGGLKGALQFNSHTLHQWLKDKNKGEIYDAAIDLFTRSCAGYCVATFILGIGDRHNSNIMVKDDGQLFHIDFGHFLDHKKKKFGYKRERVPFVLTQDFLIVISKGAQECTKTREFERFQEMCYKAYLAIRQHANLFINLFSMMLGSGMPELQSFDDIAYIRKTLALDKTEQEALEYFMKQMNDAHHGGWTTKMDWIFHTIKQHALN
T1 sequence (P27986 whole entry partner): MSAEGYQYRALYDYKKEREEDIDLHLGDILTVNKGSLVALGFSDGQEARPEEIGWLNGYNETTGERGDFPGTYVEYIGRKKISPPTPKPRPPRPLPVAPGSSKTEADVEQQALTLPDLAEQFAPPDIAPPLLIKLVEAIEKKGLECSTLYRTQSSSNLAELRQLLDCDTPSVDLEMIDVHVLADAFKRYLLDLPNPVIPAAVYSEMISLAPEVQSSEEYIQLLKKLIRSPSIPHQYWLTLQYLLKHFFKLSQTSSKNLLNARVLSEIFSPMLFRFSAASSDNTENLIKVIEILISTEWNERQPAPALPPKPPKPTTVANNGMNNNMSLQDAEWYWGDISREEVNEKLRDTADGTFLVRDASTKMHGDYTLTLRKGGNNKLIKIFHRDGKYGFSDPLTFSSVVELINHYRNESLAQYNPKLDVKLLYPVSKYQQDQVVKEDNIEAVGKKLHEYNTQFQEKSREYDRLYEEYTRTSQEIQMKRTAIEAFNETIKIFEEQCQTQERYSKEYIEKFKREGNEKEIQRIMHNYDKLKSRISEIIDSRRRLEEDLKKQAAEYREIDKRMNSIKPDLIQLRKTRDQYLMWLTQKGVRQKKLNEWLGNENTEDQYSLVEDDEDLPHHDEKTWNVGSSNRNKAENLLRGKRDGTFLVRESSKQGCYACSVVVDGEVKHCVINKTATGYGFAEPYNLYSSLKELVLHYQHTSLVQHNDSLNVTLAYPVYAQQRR
Outline: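 Competition format in Jurkat lysate: compound (serial dilutions, top 200 μM) for 1 h at rt, then 500 nM final biotinylated PIK3CA probe for 1 h at rt. Sandwich ELISA with capture antibody and Neutravidin-HRP luminescence read-out measured probe-labelled PIK3CA, giving TE50.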

[1] = test system: pAKT(S473) in FaDu cell line; experiment: In vitro Phospho-AKT(S473) HTRF analysis in FaDu cells; format: cell-based; details: Homo sapiens, 0.5 h; for IC50: FaDu cells, 30 minutes at 37° C.; for Emax: FaDu, read-out: FaDu pAKT Imax % control
Description: Example 5. In Vitro Phosgho-AKT(S473) Analysis
Functional activity of the compounds to inhibit pAKT were assessed in FaDu or H358 cell lines as indicated below.
• Complete Media • FBS, Corning catalog #35-010-CV • Anti-Anti, Gibco catalog #15240-062 • 96 well plate, Corning catalog #3610 • TrypLE, Gibco catalog #12604013 • Phospho-AKT(S473) HTRF kit, Cisbio catalog #64AKSPET
Cells were detached from the tissue culture flask with TrypLE. The cells were pelleted at 500×g for 5 min, TrypLe was removed and then resuspended in the necessary volume of media+1% FBS to give the appropriate cell density (17,500 cells/mL for FaDu; 20,000 cells/mL for H358). 100 μL of cell suspension/well was dispensed into the 96-well plate while keeping the outer wells of the plate free of cells and filled with PBS to prevent evaporation of interior wells. The plate was incubated at 37° C. and allowed to adhere overnight. The cells were treated with a dose response of compound and incubated at 37° C. for 30 minutes. The cells were then processed and pAKT(S473) levels were assessed following the specifications of the Cisbio HTRF kit.

PIK3CA_C242 = biological target: T2, PIK3CA_C242 (Homo sapiens, UniProt P42336); experiment: Proteomic TE50 (IA-DTB / TMT mass spectrometry) in Jurkat cell lysate; format: binding; details: 1 hour at rt, 7-point dose response
T2 construct: endogenous in cells; host or cells: Jurkat cell lysate
T2 sequence (P42336 whole entry): as the sequence (P42336 whole entry) above
T2 sequence (P27986 whole entry partner): as the sequence (P27986 whole entry partner) above
Outline: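 Cysteine engagement was read by targeted TMT MS3 of the IA-DTB-labelled, streptavidin-enriched C242 tryptic peptide. Beforehand, Jurkat lysate was exposed to a 7-point 1:5 compound series for 1 h at rt, then to 200 μM IA-DTB for 1 h. Reporter S/N curves gave TE50.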

SMILES	IC50 (PIK3CA) [nM]	IC50 [1] [nM]	IC50 (PIK3CA_C242) [nM]	Emax [1] [%]
CC(O)c1ccc(S(=O)(=O)N2CC[C@@](F)(C(=O)N[C@H](C)/C=C/C(=O)N3CC(F)(F)C3)C[C@H]2C)c(-c2ccccc2Cl)c1 (mixture of isomers) [Compound 252, (2R,4S)-1-((2′-chloro-5-((RS)-1-hydroxyethyl)-[1,1′-biphenyl]-2-yl)sulfonyl)-N-((R,E)-5-(3,3-difluoroazetidin-1-yl)-5-oxopent-3-en-2-yl)-4-fluoro-2-methylpiperidine-4-carboxamide]	280	248		85.8
C[C@H](/C=C\S(C)(=O)=O)NC(=O)[C@@]1(F)CCCN(C(=O)[C@H]2CN(CC(F)(F)F)C[C@H]2c2cc(F)ccc2Cl)CC1 (single isomer, unassigned) [Compound 166, (R)-1-((3*R,4*R)-4-(2-chloro-5-fluorophenyl)-1-(2,2,2-trifluoroethyl)pyrrolidine-3-carbonyl)-4-fluoro-N-((R,Z)-4-(methylsulfonyl)but-3-en-2-yl)azepane-4-carboxamide]	300	187		78.9
C[C@H](/C=C\S(C)(=O)=O)NC(=O)[C@@]1(F)CCCN(C(=O)[C@H]2CN(CC(F)(F)F)C[C@H]2c2ccc(F)cc2Cl)CC1 (single isomer, unassigned) [Compound 167, (R)-1-((3*R,4*R)-4-(2-chloro-4-fluorophenyl)-1-(2,2,2-trifluoroethyl)pyrrolidine-3-carbonyl)-4-fluoro-N-((R,Z)-4-(methylsulfonyl)but-3-en-2-yl)azepane-4-carboxamide]	580	518		93.6
C[C@H](/C=C\S(C)(=O)=O)NC(=O)[C@@]1(F)CCCN(C(=O)[C@H]2CN(CC(F)(F)F)C[C@H]2c2cccc(F)c2Cl)CC1 (single isomer, unassigned) [Compound 168, (R)-1-((3*R,4*R)-4-(2-chloro-3-fluorophenyl)-1-(2,2,2-trifluoroethyl)pyrrolidine-3-carbonyl)-4-fluoro-N-((R,Z)-4-(methylsulfonyl)but-3-en-2-yl)azepane-4-carboxamide]	215	136		90.6
Cc1ccc(Cl)c([C@@H]2CN(CC(F)(F)F)C[C@@H]2C(=O)N2CCC[C@](F)(C(=O)N[C@H](C)/C=C\S(C)(=O)=O)CC2)c1 (single isomer, unassigned) [Compound 170, (R)-1-((3*R,4*R)-4-(2-chloro-5-methylphenyl)-1-(2,2,2-trifluoroethyl)pyrrolidine-3-carbonyl)-4-fluoro-N-((R,Z)-4-(methylsulfonyl)but-3-en-2-yl)azepane-4-carboxamide]	760	484		83.2
C[C@@H](/C=C\S(C)(=O)=O)NC(=O)C1(F)CCN(S(=O)(=O)c2ccc(Br)cc2-c2ccccc2Cl)CC1 [Compound 62, (S,Z)-1-((5-bromo-2′-chloro-[1,1′-biphenyl]-2-yl)sulfonyl)-4-fluoro-N-(4-(methylsulfonyl)but-3-en-2-yl)piperidine-4-carboxamide]		27.5		85.2
C[C@@H](/C=C\S(C)(=O)=O)NC(=O)C1(F)CCN(S(=O)(=O)c2ccc(Cl)cc2-c2cccc(OCc3cccnc3)c2)CC1 [Compound 260, (S,Z)-1-((5-chloro-3′-(pyridin-3-ylmethoxy)-[1,1′-biphenyl]-2-yl)sulfonyl)-4-fluoro-N-(4-(methylsulfonyl)but-3-en-2-yl)piperidine-4-carboxamide]	150		210	
COc1cccc(COc2cccc(-c3cc(Cl)ccc3S(=O)(=O)N3CCC(F)(C(=O)N[C@@H](C)/C=C\S(C)(=O)=O)CC3)c2)c1 [Compound 261, (S,Z)-1-((5-chloro-3′-((3-methoxybenzyl)oxy)-[1,1′-biphenyl]-2-yl)sulfonyl)-4-fluoro-N-(4-(methylsulfonyl)but-3-en-2-yl)piperidine-4-carboxamide]	480		730	
CCCCCOc1cccc(-c2cc(Cl)ccc2S(=O)(=O)N2CCC(F)(C(=O)N[C@@H](C)/C=C\S(C)(=O)=O)CC2)c1 [Compound 262, (S,Z)-1-((5-chloro-3′-(pentyloxy)-[1,1′-biphenyl]-2-yl)sulfonyl)-4-fluoro-N-(4-(methylsulfonyl)but-3-en-2-yl)piperidine-4-carboxamide]	780		430	
C[C@@H](/C=C\S(C)(=O)=O)NC(=O)C1(F)CCN(S(=O)(=O)c2ccc(Cl)cc2-c2cccc(OC3CCC3)c2)CC1 [Compound 263, (S,Z)-1-((5-chloro-3′-cyclobutoxy-[1,1′-biphenyl]-2-yl)sulfonyl)-4-fluoro-N-(4-(methylsulfonyl)but-3-en-2-yl)piperidine-4-carboxamide]	1000		930	
CC#CCOc1cccc(-c2cc(Cl)ccc2S(=O)(=O)N2CCC(F)(C(=O)N[C@@H](C)/C=C\S(C)(=O)=O)CC2)c1 [Compound 264, (S,Z)-1-((3′-(but-2-yn-1-yloxy)-5-chloro-[1,1′-biphenyl]-2-yl)sulfonyl)-4-fluoro-N-(4-(methylsulfonyl)but-3-en-2-yl)piperidine-4-carboxamide]	480		510	
C[C@@H](/C=C\S(C)(=O)=O)NC(=O)C1(F)CCN(S(=O)(=O)c2ccc(Cl)cc2-c2cccc(OCc3ccccc3Cl)c2)CC1 [Compound 265, (S,Z)-1-((5-chloro-3′-((2-chlorobenzyl)oxy)-[1,1′-biphenyl]-2-yl)sulfonyl)-4-fluoro-N-(4-(methylsulfonyl)but-3-en-2-yl)piperidine-4-carboxamide]	330		390	

Second part, led by results:

IC50 (PIK3CA) [nM]	IC50 [1] [nM]	IC50 (PIK3CA_C242) [nM]	SMILES	Emax [1] [%]
750		600	C[C@@H](/C=C\S(C)(=O)=O)NC(=O)C1(F)CCN(S(=O)(=O)c2ccc(Cl)cc2-c2cccc(OCc3cccc(Cl)c3)c2)CC1 [Compound 266, (S,Z)-1-((5-chloro-3′-((3-chlorobenzyl)oxy)-[1,1′-biphenyl]-2-yl)sulfonyl)-4-fluoro-N-(4-(methylsulfonyl)but-3-en-2-yl)piperidine-4-carboxamide]	
90		63	C[C@@H](/C=C\S(C)(=O)=O)NC(=O)C1(F)CCN(S(=O)(=O)c2ccc(Cl)cc2-c2cccc(OCc3ccccn3)c2)CC1 [Compound 269, (S,Z)-1-((5-chloro-3′-(pyridin-2-ylmethoxy)-[1,1′-biphenyl]-2-yl)sulfonyl)-4-fluoro-N-(4-(methylsulfonyl)but-3-en-2-yl)piperidine-4-carboxamide]	
170		209	COc1ccc(Cl)c(-c2cc(Cl)ncc2S(=O)(=O)N2CCC(F)(C(=O)N[C@@H](C)/C=C\S(C)(=O)=O)CC2)c1 [Compound 271, (S,Z)-1-((6-chloro-4-(2-chloro-5-methoxyphenyl)pyridin-3-yl)sulfonyl)-4-fluoro-N-(4-(methylsulfonyl)but-3-en-2-yl)piperidine-4-carboxamide]	
1100		570	C[C@H](/C=C\S(C)(=O)=O)NC(=O)C1(F)CCN(S(=O)(=O)c2cn(C)c(=O)cc2-c2ccccc2Cl)CC1 [Compound 274, (R,Z)-1-((4-(2-chlorophenyl)-1-methyl-6-oxo-1,6-dihydropyridin-3-yl)sulfonyl)-4-fluoro-N-(4-(methylsulfonyl)but-3-en-2-yl)piperidine-4-carboxamide]	
1300		910	C[C@H](/C=C\S(C)(=O)=O)NC(=O)C1(F)CCN(S(=O)(=O)c2cc(=O)n(C)cc2-c2ccccc2Cl)CC1 [Compound 275, (R,Z)-1-((5-(2-chlorophenyl)-1-methyl-2-oxo-1,2-dihydropyridin-4-yl)sulfonyl)-4-fluoro-N-(4-(methylsulfonyl)but-3-en-2-yl)piperidine-4-carboxamide]	
97		82	C[C@H](/C=C\S(C)(=O)=O)NC(=O)C1(F)CCN(S(=O)(=O)c2cnc(Br)cc2-c2ccccc2Cl)CC1 [Compound 277, (R,Z)-1-((6-bromo-4-(2-chlorophenyl)pyridin-3-yl)sulfonyl)-4-fluoro-N-(4-(methylsulfonyl)but-3-en-2yl)piperidine-4-carboxamide]	
1000		1530	CCCNC(=O)c1cccc(-c2cc(Cl)ccc2S(=O)(=O)N2CCC(F)(C(=O)N[C@@H](C)/C=C\S(C)(=O)=O)CC2)c1 [Compound 279, (S,Z)-1-((5-chloro-3′-(propylcarbamoyl)-[1,1′-biphenyl]-2-yl)sulfonyl)-4-fluoro-N-(4-(methylsulfonyl)but-3-en-2-yl)piperidine-4-carboxamide]	
